Assay results from patent US8741911B2, “Raf inhibitor compounds” (Eli Lilly and Company, priority 2012, dated 2014).
Where two headings read alike, the source gives them in different places.

What was measured:
Test in all cases: CellTiter-Glo proliferation and viability assay
Type in all cases: cell-based
[1] = system: 22RV1; details: Homo sapiens
[2] = system: huH-1; details: Homo sapiens
[3] = system: LOUCY; details: Homo sapiens, read-out: Abs IC50
[4] = system: BT-474; details: Homo sapiens
[5] = system: Colo-205; details: Homo sapiens, Colo-205, B-Raf V600E, colon
Description: (§1) B-Raf mutations, particularly B-Raf V600E in human cancer are often observed in human malignancies including melanoma, colorectal, lung, and ovarian cancers. This mutation in B-Raf may lead to constitutive kinase activity and malignant transformation.

[6] = system: WM-266-4; details: Homo sapiens, WM-266-4, B-Raf V600E, melanoma
Description: as §1

IC50 ([1]; read-out: Abs IC50): 1.96 nM
IC50 ([1]; read-out: Rel IC50): 0.19 nM
IC50 ([2]; read-out: Abs IC50): 1.99 nM
IC50 ([2]; read-out: Rel IC50): 0.59 nM
IC50 ([4]; read-out: Abs IC50): 11.6 nM
IC50 ([4]; read-out: Rel IC50): 10.9 nM
IC50 [5]: 27 nM
SMILES: CNc1ncc2cc(-c3cc(NC(=O)NCCC(C)(C)C)c(F)cc3C)c(C)nc2n1 [Example 1, 1-(3,3-Dimethylbutyl)-3-(2-fluoro-4-methyl-5-(7-methyl-2-(methylamino)pyrido[2,3-d]pyrimidin-6-yl)phenyl)urea]
IC50 [3]: 6.93 nM
IC50 [6]: 52.9 nM
